Here are results for six molecules from ChEMBL document CHEMBL1146295, “An efficient synthesis of quinoxaline derivatives from 4-chloro-4-deoxy-alpha-D-galactose and their cytotoxic activities” (Bioorg Med Chem Lett, 2007).

SMILES strings stand for the structures. Values after ≈ are worked out from the molar mass of the structure shown.

What is called IC50 is the concentration that gives 50% inhibition. High values mean weaker potency in that assay, low ones greater potency in that assay.

The assay can be described thus: Cytotoxicity against human Ec9706 cells after 48 hrs by MTT assay. To be noted: EC9706, 48 h. The assay is classed as functional, cell-based. In general terms: Tetrazolium dyes change colour on reduction, which living cells bring about.
Turning to `COC(OC)C1OC(C)(C)OC1Cc1cnc2ccc([N+](=O)[O-])cc2n1` (stereo unspecified), inhibition was half-maximal at 69.2 µg/mL (≈ 190 µM) (IC50).
The same measure for `COC(OC)C1OC(C)(C)OC1Cc1cnc2ccc(Cl)cc2n1` (stereo unspecified): 30.5 µg/mL (≈ 86.4 µM); for `COC(OC)C1OC(C)(C)OC1Cc1cnc2cc(C(=O)c3ccccc3)ccc2n1` (stereo unspecified): 80 µg/mL (≈ 189 µM).
The same measure for `COC(OC)C1OC(C)(C)OC1Cc1cnc2ccccc2n1` (stereo unspecified): greater than 100 µg/mL; for `COC(OC)C1OC(C)(C)OC1Cc1cnc2ccc(C(=O)c3ccccc3)cc2n1` (stereo unspecified): 80 µg/mL (≈ 189 µM); for `COC(OC)C1OC(C)(C)OC1Cc1cnc2cc(Cl)ccc2n1` (stereo unspecified): 30.5 µg/mL (≈ 86.4 µM).
